Experimental data taken from BindingDB's records for doi:10.1016/j.bmcl.2009.03.043 (Vertex Pharmaceuticals, 2009).

Key:
[1] = molecular target: Tyrosine-protein kinase SYK (Homo sapiens) (UniProt P43405); assay: Inhibition of SYK
[2] = molecular target: 3-phosphoinositide-dependent protein kinase 1 (Homo sapiens) (UniProt O15530); assay: Inhibition of PDK1
[3] = molecular target: Mitogen-activated protein kinase 10 (Homo sapiens, UniProt P53779); assay: Inhibition of JNK3 by spectrophotometric coupled enzyme assay
Mitogen-activated protein kinase 10, sequence (P53779 whole entry): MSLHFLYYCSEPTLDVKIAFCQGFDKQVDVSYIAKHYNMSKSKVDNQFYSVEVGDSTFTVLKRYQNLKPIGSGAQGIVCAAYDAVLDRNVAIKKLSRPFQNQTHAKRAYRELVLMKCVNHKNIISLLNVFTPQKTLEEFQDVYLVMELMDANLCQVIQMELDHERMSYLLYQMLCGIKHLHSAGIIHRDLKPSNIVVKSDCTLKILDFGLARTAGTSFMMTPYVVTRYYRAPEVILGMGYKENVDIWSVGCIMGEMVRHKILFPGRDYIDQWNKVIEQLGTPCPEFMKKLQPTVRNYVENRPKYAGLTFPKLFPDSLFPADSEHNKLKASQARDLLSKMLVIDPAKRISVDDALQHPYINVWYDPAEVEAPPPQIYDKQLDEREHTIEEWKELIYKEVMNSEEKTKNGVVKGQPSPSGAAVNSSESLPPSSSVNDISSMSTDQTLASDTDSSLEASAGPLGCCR

| Ki [1] [µM] | Ki [2] [µM] | Ki [3] [µM] | SMILES |
| --- | --- | --- | --- |
| > 30 | > 30 |  | Cc1ccc2c(c1)N(Cc1cc(F)cc3c1OCOC3)C(=O)C2N=O (configuration not stated) [1-((6-fluoro-4H-benzo[d][1,3]dioxin-8-yl)methyl)-3-(hydroxyimino)-6-methylindolin-2-one] |
|  |  | > 10 | Cc1ccc2c(c1)C(N=O)C(=O)N2Cc1ccccc1 (configuration not stated) [1-benzyl-3-(hydroxyimino)-5-methylindolin-2-one] |
|  |  | > 10 | O=NC1C(=O)N(Cc2ccccc2)c2ccccc21 (configuration not stated) [1-benzyl-3-(hydroxyimino)indolin-2-one] |
|  |  | > 10 | O=NC1C(=O)N(Cc2ccccc2)c2ccc(F)cc21 (configuration not stated) [1-benzyl-5-fluoro-3-(hydroxyimino)indolin-2-one] |
|  |  | > 10 | O=NC1C(=O)N(Cc2ccccc2[N+](=O)[O-])c2ccccc21 (configuration not stated) [3-(hydroxyimino)-1-(2-nitrobenzyl)indolin-2-one] |
|  |  | > 10 | Cc1cccc(CN2C(=O)C(N=O)c3cc(C)ccc32)c1 (configuration not stated) [3-(hydroxyimino)-5-methyl-1-(3-methylbenzyl)indolin-2-one] |
